Earlier results, collected in publication PMC8683664 (International Journal of Pharmaceutics: X, 2021).
In brackets after ≈: the same amount, converted by molar mass. Like-named read-outs stand apart in the source and are kept apart here.

Legend:
SARS-CoV-2 [1] = conditions: 2020; for EC50 in Calu-3 2B4 cells: value in brackets ref Pruijssers et al.; for EC50: read-out: EC50 in Calu-3 2B4 cells, Calu-3 2B4 cells ref Pruijssers et al.
SAR-CoV-2 = conditions: human airway epithelial (HAE) cells, value in brackets ref Agostini et al., 2018
severe COVID-19 patients = conditions: 10-day course, placebo 15 days ref Beigel et al., 2020
SARS-CoV-2 [2] = conditions: read-out: EC50 in Calu-3; continuous human lung epithelial cell line (Calu-3), prescribing information of Veklury ref Gilead Sciences, Inc., 2020

SMILES	EC50 in Calu-3 2B4 cells (SARS-CoV-2 [1])	EC50 (SARS-CoV-2 [1])	EC50 against SAR-CoV-2 in HAE (SAR-CoV-2)	recovery time (severe COVID-19 patients)	EC50 (SARS-CoV-2 [2])
N#C[C@@]1(c2ccc3c(N)ncnn23)O[C@H](CO)[C@@H](O)[C@H]1O [GS-441524]	0.1806 µg/mL (≈ 0.62 µM)	0.62 µM	0.05243 µg/mL (≈ 0.18 µM)		
CCC(CC)COC(=O)[C@H](C)N[P@](=O)(OC[C@H]1O[C@@](C#N)(c2ccc3c(N)ncnn23)[C@H](O)[C@@H]1O)Oc1ccccc1 [remdesivir]	0.16873 µg/mL (≈ 0.28 µM)	0.28 µM	0.04218 µg/mL (≈ 0.07 µM)	11 days	0.28 µM
